Measured values from patent US6696490B2, “Slow release insect repellent compounds and process for delivering active” (priority 2002, dated 2004).
“Also recorded” adds a separate entry of the source.

Tests used:
Format in all cases: in vivo
[1] = SPME/GC-MS of PMD generated by hydrolysis of PMDL placed on the skin; conditions: 100 μg/cm^2 PMDL on skin, sampling 0 to 300 min, FIG. 3a
Method: Solid Phase Microextraction (SPME) is a sample preparation technique which has been used for trapping volatiles. In the subject invention, SPME was used to extract and concentrate PMD vapour (by-product of PMDL hydrolysis) in the headspace. The extracted analytes were then analyzed by Gas Chromatography-Mass Spectroscopy (GC-MS). The SPME fiber used here was from Supelco, a 2.0 cm long, StableFlex fiber (23-gauge needle), 50/30 divinylenzene/carboxene on polydimethylsiloxane. Agilent 6890 Gas Chromatography equipped with Agilent 5973 Mass Selective Detector and Chemstation, G1701CA software were used for analyzing and identifying PMD. GC was equipped with a 0.25 […] HP-5 capillary column with 0.25 micrometer of cross-linked 5% Phenyl Methyl Siloxane. The GC oven was programmed to increase its temperature at 2 min from the initial temperature of 60° C. to 300° C. at 6° C./min. The injector temperature and the head pressure were 250° C. and 8.6 psi, respectively. The flow rate of the carrier gas (helium) was 1 mL/min The total flow rate was set at 25 mL/min Purge was off for 0.5 min, i.e. from a split mode into a splitless mode after the program was started. Agilent 5973 Mass Selective Detector with an ion source by an electron impact (El) data system was used for mass spectrometric identification. […]

[2] = Ethanol extraction of PMD- and PMDL-treated skin followed by GC-MS
Method: PMDL standard and ethanol skin extracts were also analyzed by GC-MS. The injection mode for PMDL was a split mode at 10:1 split ratio. The rest of conditions were the same as the ones used for PMD analysis by GC-MS as are listed above. The SPME apparently is a tube (e.g., dome or other like structure) strapped to measured area (e.g., arm) with an opening (e.g., at top) to insert analytical extractor which is essentially a needle used to trap/absorb volatiles released in the apparatus.
(§1) In this set, individual stock solutions of PMD and PMDL were prepared by placing 0.0978 g PMD and 0.1095 g in 5 mL of ethanol, respectively. Then five areas of skin, about 7 cm^2 on each arm, were selected. One of the five spots on each arm remained untreated as control and marked as a blank. The remaining four areas on the right arm were dosed with 32 μL PMDL and the remaining four areas on the left arm were dosed with 36 μL of PMD. Untreated area 1, and the treated area on each arm marked as 2, 3, 4, and 5, were then extracted with 4 mL of ethanol for a period of 3 min at 0, 15, 60 and 150 min intervals, respectively. Collected extracts were then analyzed by GC-MS for their PMD and PMDL and by APCI-MS for their linoleic acid contents (FIGS. 4, 5, 6 and 7). FIG. 4 is plot of PMD, FIG. 5 is plot of PMDL; and FIGS. 6 and 7 are plots for linoleic acid.

[3] = Ethanol extraction of PMDL-treated skin followed by APCI-MS for linoleic acid; conditions: FIGS. 6 and 7
Method: as §1, with “Another set of experiments was conducted to confirm the results obtained earlier from SPME-GC for PMD & PMDL and also to confirm hydrolysis of PMDL into linoleic acid and PMD on the skin by ethanol extraction of the skin followed by GC-MS and APCI-MS analysis of the collected extracts. In” for “In”, “FIG. 4 is plot of PMD, FIG. 5 is plot of PMDL; and FIGS. 6 and 7 are plots for linoleic acid.” left out
APCI-MS was used to analyze linoleic acid in ethanol skin extracts. […] Samples from the last set of experiments, as described in the […] were analyzed for their linoleic acid level using this technique. Each extracted sample was analyzed in triplicate.

[4] = SPME/GC-MS of headspace above forearm skin dosed with PMD (evaporation of PMD)
Method: Solid Phase Microextraction (SPME) is a sample preparation technique which has been used for trapping volatiles. In the subject invention, SPME was used to extract and concentrate PMD vapour (by-product of PMDL hydrolysis) in the headspace. The extracted analytes were then analyzed by Gas Chromatography-Mass Spectroscopy (GC-MS). The SPME fiber used here was from Supelco, a 2.0 cm long, StableFlex fiber (23-gauge needle), 50/30 divinylenzene/carboxene on polydimethylsiloxane. Agilent 6890 Gas Chromatography equipped with Agilent 5973 Mass Selective Detector and Chemstation, G1701CA software were used for analyzing and identifying PMD. GC was equipped with a 0.25 […] HP-5 capillary column with 0.25 micrometer of cross-linked 5% Phenyl Methyl Siloxane. The GC oven was programmed to increase its temperature at 2 min from the initial temperature of 60° C. to 300° C. at 6° C./min. The injector temperature and the head pressure were 250° C. and 8.6 psi, respectively. The flow rate of the carrier gas (helium) was 1 mL/min The total flow rate was set at 25 mL/min Purge was off for 0.5 min, i.e. from a split mode into a splitless mode after the program was started. Agilent 5973 Mass Selective Detector with an ion source by an electron impact (El) data system was used for mass spectrometric identification. The detector was used in a scan mode to scan mass ranging from a Low Mass of 40 to a High Mass of 550. Solvent delay time was 3.5 min. Total sample run time was 60 min.
To determine the extent of evaporation of PMD from the skin matrix over a period of time (correlating to amount of PMD produced by hydrolysis from PMD-L), a number of experiments were carried out. In these experiments, SPME fiber was inserted into a headspace of a glass semi-ball chamber fastened on forearm by an elastic band. […]
For a first set of SPME experiments, a PMD solution at concentration of 21800 μg/mL was prepared by placing 0.218 g of PMD crystals in 10 mL of absolute ethanol. […] The SPME glass chamber and fibers were then removed and the SPME fiber were analyzed by GC-MS for measurement of PMD. […]

Molecule	PMD signal generated from hydrolysis of PMDL on the skin over time (SPME/GC-MS) [1]	PMD signal generated from hydrolysis of PMDL on the skin over time (SPME/GC-MS) ([1]; listed as PMD-L)	levels of PMDL on PMDL treated skin (GC-MS peak area of ethanol extracts) ([2]; leave on time 0 to 150 min, FIG. 5)	level of PMD on PMDL treated skin ([2]; over a 150 minute period)	linoleic acid level on PMDL treated skin over time ([3]; APCI-MS of ethanol extracts at 0, 15, 60 and 150 min)	level of linoleic acid in PMDL treated skin compared to untreated skin (blank) ([3]; APCI-MS of ethanol extracts)	levels of PMD on the skin over leave on time (SPME/GC-MS) ([4]; 40 μg/cm^2 PMD applied neat, 0 to 300 minutes, FIG. 3b)	time over which PMD signal was followed and detected ([4]; 40 μg/cm^2 PMD on forearm skin, SPME extraction time 30 min, FIG. 3b)	time after which PMD signal could not be detected ([4]; 40 μg/cm^2 PMD on forearm skin, SPME sampling time 5 min) [h]	time after which active is no longer present ([2]; PMD delivered in non-ester form, FIG. 4) [h]	PMD levels on PMD treated skin (GC-MS peak area of ethanol extracts) ([2]; leave on time 0 to 150 minutes, FIG. 4)
3,8-p-Menthanedilinoleate [PMDL]	presence of high levels of PMD released from the skin at the early stage and then through a decrease in the PMD levels over period of time	initial sharp increase in the concentration of PMD	a trend of decrease in the levels of PMDL on the skin	simultaneous increase in the level of PMD on the skin	an increase in linoleic acid level over the 15 to 60 min period followed by a decrease at 150 min; also recorded: increase in linoleic on treated skin in first hour followed by a decrease	substantially higher in the treated skin samples compared to the untreated skin	–	–	–	–	–
CC1CCC(C(C)(C)O)C(O)C1 (centres unmarked) [PMD, 3,8-p-menthanediol, reference compound]	–	–	–	–	–	–	decreased as the leave on time proceeded from 0 to 300 minutes	up to 5 hours	2	2.5	decreased as the leave on time increased from 0 to 150 minutes; also recorded: decrease of PMD
